Laboratory results from patent publication US20260001876A1, “Compounds and Their Use as PDE4 Activators” (Mironid Limited, priority 2022, published 2026).

Legend:
[1] = biological target: T1, full-length human PDE4D5 (long isoform) (Homo sapiens, UniProt Q08499); assay: PDE assay ([3H]cAMP hydrolysis) with PDE4D5 cell lysate cytosol fraction; assay type: biochemical; settings: 100 μM test compound; mean % increase in counts over basal activity
T1 construct: cell lines that stably expressed the full-length human PDE4 long isoforms and the full length human PDE4B2 short isoform; made in house; cytosol fraction of the cell lysate, not purified
T1 sequence (Q08499 1-745 isoform Q08499-6): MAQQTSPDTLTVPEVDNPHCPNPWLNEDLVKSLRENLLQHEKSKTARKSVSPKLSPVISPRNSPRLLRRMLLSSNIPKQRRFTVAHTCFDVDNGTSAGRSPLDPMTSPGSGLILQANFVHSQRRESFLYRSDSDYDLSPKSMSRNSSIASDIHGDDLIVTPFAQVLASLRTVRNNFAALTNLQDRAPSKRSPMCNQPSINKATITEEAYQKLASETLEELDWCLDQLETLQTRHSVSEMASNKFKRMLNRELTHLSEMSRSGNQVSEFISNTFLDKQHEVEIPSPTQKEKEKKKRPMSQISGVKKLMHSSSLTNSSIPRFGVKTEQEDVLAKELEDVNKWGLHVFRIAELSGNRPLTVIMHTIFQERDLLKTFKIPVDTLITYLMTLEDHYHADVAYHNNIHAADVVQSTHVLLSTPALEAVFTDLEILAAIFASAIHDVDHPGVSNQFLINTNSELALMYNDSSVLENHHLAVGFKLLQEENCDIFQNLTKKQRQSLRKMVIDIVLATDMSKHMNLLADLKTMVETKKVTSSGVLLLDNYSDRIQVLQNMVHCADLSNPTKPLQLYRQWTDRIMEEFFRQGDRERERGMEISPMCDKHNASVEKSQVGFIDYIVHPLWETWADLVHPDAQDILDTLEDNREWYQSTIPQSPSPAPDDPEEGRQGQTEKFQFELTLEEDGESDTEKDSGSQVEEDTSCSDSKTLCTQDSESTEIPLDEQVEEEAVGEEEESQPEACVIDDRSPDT
Description: (§1) HEK 293 and MDCK cells (Public Health England, Cell Culture Collections) were maintained in Dulbecco's Modified Eagle's Medium (DMEM) supplemented with 10% (v/v) fetal bovine serum (FBS) (Seralab), 2 mM L-glutamine and 100 U/mL penicillin streptomycin cocktail (ThermoFisher); termed complete media. Clonal HEK 293 cell lines were maintained in complete media supplemented with 0.6 mg/ml G418 (Enzo Life Sciences). Mouse inner medullary collecting duct (m-IMCD3) cells [American Type Culture Collection (ATCC)] were maintained in media consisting of DMEM/Hams F-12 50/50 Mix (DMEM F12; Corning) supplemented with penicillin streptomycin cocktail (100 U/mL) and FBS (10% v/v) (DMEM F12-10% FBS).
(§2) Experiment 1: Measurement of Modulation of Enzyme Activity by PDE4 Long Form Activators of the Present Invention Using Full-Length Human PDE4 Isoforms; Long Forms PDE4D5, PDE4C3, PDE4B1 and Short Form PDE4B2
(§3) (Marchmont, R. J. and Houslay, M. D. Biochem. J. 187:381-92, 1980)
(§4) Exogenous expression of long form PDE4 enzymes and stable cell line generation For transient transfection of exogenous PDE4 long isoforms, HEK 293 cells were transfected with pcDNA3.1 or pDEST™ PDE4 expression vectors using Lipofectamine LTX/Plus reagent (Invitrogen) as outlined by the manufacturer.
(§5) Where stable cell lines were generated the clonal isolates were expanded to obtain cell lines that stably expressed the full-length human PDE4 long isoforms and the full length human PDE4B2 short isoform. These were called the HEK-PDE4D5, HEK-PDE4B1 and HEK-PDE4B2 cell lines, respectively.
(§6) Lysate Preparation (Using PDE4D5 as a Typical Example)
(§7) HEK-PDE4D5 cells were seeded out in 100 mm plates and incubated at 37° C. in an atmosphere of 5% CO2, 95% air. Cell lysates were prepared using KHEM buffer [50 mM KCl, 10 mM EGTA, 50 mM HEPES (pH 7.2), 1.92 mM MgCl2].
(§8) To prepare the cell lysates, the 100 mm plates containing the cells were placed on ice and washed with ice-cold PBS (phosphate buffered saline, pH 7.4). KHEM buffer (500 μL) was added to the cells. Cells were then scraped off the plate and triturated using a needle (BD Microlance™ 0.8, 40 mm). The lysed cells were then centrifuged at 2000 rpm for 10 minutes to remove cell debris and the supernatant (cell lysate containing recombinant PDE4D5) was transferred to a fresh tube and kept on ice.
(§9) Cytosol Fraction Preparation (Using PDE4D5 as a Typical Example)
(§10) The cell lysate containing recombinant PDE4D5 was transferred into a centrifuge tube and placed into an ultracentrifuge (BECKMAN COULTER) and spun at high speed (100,000g) for 30 minutes at 4° C. The cytosol fraction was then collected and its protein amount determined using a BCA protein assay.
(§11) PDE Assay—(Using PDE4D5 as a Typical Example)
(§12) PDE assays were performed in thin-walled V-bottomed 96-well plates. […]

[2] = biological target: T2, full-length human PDE4B2 (short isoform) (Homo sapiens, UniProt Q07343); assay: PDE assay ([3H]cAMP hydrolysis) with PDE4B2 cell lysate cytosol fraction; assay type: biochemical; settings: 100 μM test compound; mean % increase in counts over basal activity
T2 construct: the full length human PDE4B2 short isoform; made in house; cytosol fraction of the cell lysate, not purified
T2 sequence (Q07343 1-564 isoform Q07343-2): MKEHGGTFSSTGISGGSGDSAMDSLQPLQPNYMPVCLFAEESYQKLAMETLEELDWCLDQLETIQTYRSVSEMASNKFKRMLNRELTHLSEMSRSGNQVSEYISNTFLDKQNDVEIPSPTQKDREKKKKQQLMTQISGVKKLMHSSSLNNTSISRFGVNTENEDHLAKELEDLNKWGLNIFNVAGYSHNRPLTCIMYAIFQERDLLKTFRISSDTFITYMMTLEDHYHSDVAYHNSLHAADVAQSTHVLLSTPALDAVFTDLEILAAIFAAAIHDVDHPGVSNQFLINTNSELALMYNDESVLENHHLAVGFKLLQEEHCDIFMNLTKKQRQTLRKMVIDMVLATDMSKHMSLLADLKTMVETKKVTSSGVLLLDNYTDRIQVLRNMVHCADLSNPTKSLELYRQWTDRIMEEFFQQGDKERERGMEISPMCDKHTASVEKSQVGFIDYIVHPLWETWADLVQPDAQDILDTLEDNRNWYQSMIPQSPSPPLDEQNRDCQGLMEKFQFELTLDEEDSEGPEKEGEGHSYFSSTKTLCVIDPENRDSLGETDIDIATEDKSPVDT
Description: as §1, §2, §3, §4, §5, §6, §7, §8, §9, §10, §11, §12

[3] = test system: m-IMCD3 cells expressing PDE4 long forms; assay: cAMP levels in assay media of PGE2-stimulated m-IMCD3 3D cell culture; assay type: cell-based; settings: Mus musculus, mIMCD3; 3 μM test compound; compared to 100% for (DMSO + PGE2); read-out: cAMP level (% of PGE2-stimulated)
Description: as §1
Experiment 2: Reduction of CAMP Levels in m-IMCD3 Cell Culture Treated with PDE4 Long Form Activators
Activation of intracellular PDE4 long forms leads to a reduction of both intracellular CAMP and externalised cAMP (Omar et al., PNAS 116:13320-13329, 2019). This reduction may be measured in the cell culture media supernatant of 3D cystic cell cultures, such as in the m-IMCD3 cell cyst suppression assay described in Experiment 3.
Following the completion of the m-IMCD3 cell cyst suppression assay (Experiment 3), the CAMP levels in the assay media from individual or pooled assay wells was measured using a CAMP ELISA kit (Enzo Life Sciences) or a LANCE Ultra CAMP kit (PerkinElmer) according to the manufacturer's instructions.
Treatment with PDE4 long form activators reduced CAMP levels in PGE2-stimulated m-IMCD3 cell culture.

[4] = test system: m-IMCD3 cells; assay: Inhibition of PGE2-stimulated in vitro cyst formation in m-IMCD3 cells (3D culture); assay type: cell-based; settings: Mus musculus, mIMCD3, 144 h, mean cyst area, 100% for (DMSO + PGE2) and 0% for DMSO control, 6 days of culture; for activity at 3 µM: read-out: % Cyst area* after incubation with 3 μM test compound
Outline: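 m-IMCD3 cells in a 3D collagen I/Matrigel matrix at 37 °C, 5% CO2 were dosed 18–24 h after plating with compound (0.1% DMSO) plus 100 nM PGE2, in quadruplicate, replenished after 2–3 days. On day 6, z-stack imaging measured mean cyst area, normalised to DMSO+PGE2 (100%) and DMSO alone (0%).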

Compound	% increase in PDE4D5 (long isoform) activity at 100 μM* (%) [1]	% increase in PDE4B2 (short isoform) activity at 100 μM* [2]	activity at 3 µM [3]	activity at 10 µM ([4]; 10 μM, read-out: % Cyst area* after incubation with 10 μM test compound)	activity at 3 µM [4]
O=C(COc1ccc(F)cc1)N1CCc2nc(N3C4CCC3CNC4)ccc2C1 [Example 46, 1-(2-(3,8-diazabicyclo[3.2.1]octan-8-yl)-7,8-dihydro-1,6-naphthyridin-6(5H)-yl)-2-(4-fluorophenoxy)ethan-1-one]	94%	6%	42%		
O=C(Cc1ccc(F)cc1)N1CCc2nc(N3C4CCC3CNC4)ccc2C1 [Example 48, 1-(2-(3,8-diazabicyclo[3.2.1]octan-8-yl)-7,8-dihydro-1,6-naphthyridin-6(5H)-yl)-2-(4-fluorophenyl)ethan-1-one]	31%	−9%	57%	-5%	
O=C(Cc1ccc(F)cc1)N1CCc2nc(N3C4CCC3CNC4)ncc2C1 [Example 139, 1-(2-(3,8-diazabicyclo[3.2.1]octan-8-yl)-7,8-dihydropyrido[4,3-d]pyrimidin-6(5H)-yl)-2-(4-fluorophenyl)ethan-1-one]	28%	−1%			1%
O=S(=O)(Cc1ccc(F)cc1)N1CCc2nc(N3C4CCC3CNC4)ccc2C1 [Example 158, 2-(3,8-diazabicyclo[3.2.1]octan-8-yl)-6-((4-fluorobenzyl)sulfonyl)-5,6,7,8-tetrahydro-1,6-naphthyridine]			46%		5%
CCN1CC2CCC(C1)N2c1ccc2c(n1)CCN(S(=O)(=O)Cc1ccc(F)cc1)C2 [Example 159, 2-(3-ethyl-3,8-diazabicyclo[3.2.1]octan-8-yl)-6-((4-fluorobenzyl)sulfonyl)-5,6,7,8-tetrahydro-1,6-naphthyridine]	35%	2%			1%
O=S(=O)(Cc1ccc(F)cc1)N1CCc2nc(N3CCNCC3)ccc2C1 [Example 160, 6-((4-fluorobenzyl)sulfonyl)-2-(piperazin-1-yl)-5,6,7,8-tetrahydro-1,6-naphthyridine]			35%		-4%
O=S(=O)(Cc1ccccc1)N1CCc2nc(N3C4CCC3CNC4)ccc2C1 [Example 162, 6-(benzylsulfonyl)-2-(3,8-diazabicyclo[3.2.1]octan-8-yl)-5,6,7,8-tetrahydro-1,6-naphthyridine]			38%		-3%
CCN1CC2CCC(C1)N2c1ccc2c(n1)CCN(S(=O)(=O)Cc1ccccc1)C2 [Example 163, 6-(benzylsulfonyl)-2-(3-ethyl-3,8-diazabicyclo[3.2.1]octan-8-yl)-5,6,7,8-tetrahydro-1,6-naphthyridine]			39%		-1%
O=C(N[C@H]1CCOc2ccccc21)N1CCc2nc(N3C4CCC3CNC4)ccc2C1 [Example 166, 2-(3,8-diazabicyclo[3.2.1]octan-8-yl)-N—((S)-chroman-4-yl)-7,8-dihydro-1,6-naphthyridine-6(5H)-carboxamide]			35%		3%
